Measured values as given in patent US20260234188A1, “CHEMOKINE-BINDING PEPTIDES” (Oxford University Innovation Limited, priority 2022, published 2026).
Entries after “also recorded” stand apart in the source; their conditions may differ.

Tested on: panel of up to 42 human chemokines
Test: Phage-display next generation sequencing screen of overlapping hexadecapeptide libraries, chemokines displayed on streptavidin beads
Format: binding
Description: FIG. 1. Exemplar results from phage display screens. Phage-display libraries were constructed and analysed as described in (McLaughlin, 2013) (Tonikian, 2007). […] FIG. 1A, CC chemokines against evasin A library. FIG. 1B, CXC chemokines against the evasin B library. FIG. 1C, CXC and CX3C chemokines against the viral chemokine binding protein library. FIG. 1D, CXC chemokines against the chemokine library. […] Identified hexadecapeptides were mapped to the position in the originating protein (x-axis) and to fold enrichment (log 2 E, left y-axis). Regions of interest (ROI) were defined where the cumulative residue log 2 E, (clog 2 E:r, right y-axis) exceeds the 95% upper confidence interval of the median clog 2 E:r for the entire protein (indicated as a horizontal dotted line in each panel). Proteins are referred to by their UniProt ID.
Hexadecapeptides were identified using a phage-display next generation sequencing approach (McLaughlin, 2013). Libraries containing a total of 55662 overlapping peptides (from the tick chemokine binding proteins shown in Tables 3A and 3B, the viral chemokine binding proteins shown in Table 3C, the human chemokines shown in Table 3 E, and the human/viral chemokine receptors and other chemokine-binding proteins shown in Table 3D) were first constructed, and then screened against a panel of up to 42 human chemokines, as shown in Table 3F.

[1] = log2E greater than 5, chemokines named by first part of UniProt Entry Name, peptides binding complement C5a (control) excluded
[2] = log2E greater than 5, chemokines named by first part of UniProt entry name, C5a (control) binders excluded
[3] = log2E greater than 5, chemokines named by first part of UniProt Entry Name

| Substance | Chemokines Bound [2] | Chemokines Bound [3] | also measured |
| --- | --- | --- | --- |
| CR7815 (GVVTSVITWVVAVFAS) |  |  | Chemokines Bound [1]: CCL1, CCL15,; also recorded: CCL2, CCL20,; also recorded: CCL22, CCL25,; also recorded: CCL28, CCL8,; also recorded: CXL10, CXL13 |
| VP6289 (MVAVALYAYGLAFRLM) |  |  | Chemokines Bound [1]: CCL1, CCL11,; also recorded: CCL15, CCL17,; also recorded: CCL19, CCL2,; also recorded: CCL20, CCL22,; also recorded: CCL25, CCL28,; also recorded: CCL5, CXL10,; also recorded: SDF1, IL8 |
| CK1445 (FVVDYYETSSLCSQPA) | CCL19, CCL2, and X3CL1, SDF1, and IL8 |  |  |
| CR362 (AEIYEYLFFFSFFFLA) |  | CCL22, CXL11,; also recorded: CXL13 |  |
| CR9111 (IIFSYVVVFLVAWLPY) |  |  | Chemokines Bound [1]: CCL20, CCL22,; also recorded: CCL28, CXL11,; also recorded: CXL13 |
| CR15917 (MVFSFFYVIFSKALHD) | CCL19, X3CL1,; also recorded: SDF1, CXL13 |  |  |
| CR10275 (IYLLNLAISDLFFLLT) | CCL17, CCL18,; also recorded: CCL25, CXL10,; also recorded: CXL13 |  |  |
| CR9432 (ILMFLSDFSFIFSSWA) |  |  | Chemokines Bound [1]: CCL1, CXL10,; also recorded: CXL11, SDF1,; also recorded: CXL14, IL8 |
| CR13966 (LPTMVFSFFYVIFCKA) | CCL20, CCL25,; also recorded: SDF1, CXL14 |  |  |
| CR26327: chemokine binding peptide of Table 5A used in FIG. 5 combinations (VWVASILSSILDTIFH) |  | CCL2, CXL11, and IL8 |  |
| CR7819 (GVWLMAIVGTFLNVLV) |  |  | Chemokines Bound [1]: CCL17, CCL18, and CCL2, CCL20, and CCL22, CXL11, and SDF1, CXL13, and IL8 |
| CR14585 (LTLKVILGFFLPFVVM) | CCL17, CCL18,; also recorded: CCL19, CCL20,; also recorded: CXL14 |  |  |
| CR22747 (TFKILICIVWGVMPVV) | CCL1, CCL17,; also recorded: CCL18, CCL20,; also recorded: CCL22, CCL28,; also recorded: X3CL1, CXL10,; also recorded: SDF1, CXL13,; also recorded: CXL14 |  |  |
| CR5416 (FLAFLRSGYDMWLMLV) |  | CCL1, CCL11, and CCL17, CCL18, and CCL2, CCL20, and CXL11, CXL13, and IL8 |  |
| CR13108 (LLFFVFSFPYHVLNLL) | CCL17, CCL18,; also recorded: CXL10, CXL11,; also recorded: CXL14, IL8 |  |  |
| CR27448 (YLLNLAISDLLFVFSL) |  | CCL1, CCL2,; also recorded: CXL11, IL8 |  |
| CR6624 (FYYLYVYLDIFSVVAV) |  |  | Chemokines Bound [1]: CCL15, CCL17, and CCL18, CCL19, and CCL20, CCL22, and CCL25, CCL28, and X3CL1, CXL10, and CXL11, SDF1, and CXL13, CXL14, and IL8 |
| CR26036 (VTSLLIWVISLLVSLP) |  | CCL28, X3CL1, and SDF1, CXL14, and IL8 |  |
| CR23950 (TVLATFKILICIVWGV) |  | CCL18, CCL19,; also recorded: CCL20, CCL25,; also recorded: SDF1, IL8 |  |

| Substance | Chemokines Bound [2] | Chemokines Bound [3] | also measured |
| --- | --- | --- | --- |
| EB1522 (GNSTEGRCIELIGDFD) |  |  | Chemokines Bound [1]: CXL11, SDF1,; also recorded: CXL14 |
| CR6558 (FYISLFAGVSFLINLS) |  |  | Chemokines Bound [1]: CCL17, CCL18,; also recorded: CCL19, CCL20,; also recorded: CCL22, CCL25,; also recorded: CCL28, X3CL1,; also recorded: CXL10, CXL11,; also recorded: SDF1, CXL13,; also recorded: CXL14, IL8 |
| CR7823 (GVWLMSIVGTFLNVLV) |  |  | Chemokines Bound [1]: CCL11, CCL17, and CCL18, CCL2, and CCL8, CXL10, and CXL11, CXL14, and IL8 |
| CR2028 (ATSWVVIFWILAALMG) | CCL17, CCL18,; also recorded: CCL19, CCL20,; also recorded: CCL28, SDF1,; also recorded: CXL13, CXL14 |  |  |
| CR5242 (FIGFFGSIFFITVISI) |  | CCL17, CCL18,; also recorded: CCL20, X3CL1,; also recorded: CXL13 |  |
| VP11559 (YLYILFLSCIIINGRD) |  |  | Chemokines Bound [1]: CXL10, CXL11,; also recorded: CXL13, IL8 |
| CR2291 (AWFLPIMYSIISFVGL) |  | CCL1, CCL11, and IL8 |  |
| CK3750 (PEWVNTPSTCCLKYYE) | CCL18, CCL19,; also recorded: CCL22, X3CL1 |  |  |
| CR10008 (ITLFASDFVLMWAVFF) | CCL1, CCL22,; also recorded: CXL10, CXL11 |  |  |
| CR7856 (GWVFIFSSIQLCTVVF) |  |  | Chemokines Bound [1]: CCL1, CCL19, and CCL20, CCL25, and CXL10, SDF1, and IL8 |
| CR3800 (DYSIILMFLSDFSFIF) |  | CCL1, CCL11, and CCL15, CCL18, and CCL28, X3CL1, and CXL10, CXL11, and SDF1, CXL13, and IL8 |  |
| CR26547 (WHWVFGSFLAKMVSTL) |  | CCL1, X3CL1,; also recorded: CXL14 |  |
| CR23443 (TNWKLLAEIYEYLFFF) |  | CCL17, CCL18,; also recorded: X3CL1, CXL10,; also recorded: CXL13 |  |
| CR23572 (TRFGVWLMSIVGTFLN) |  | CCL17, CCL18,; also recorded: CCL2, CCL20,; also recorded: CCL22, CCL25,; also recorded: X3CL1, IL8 |  |
| CR26850 (WVVVFQFQHIMVGLIL) |  | CCL1, CCL19, and CCL20, CCL28, and SDF1 |  |
| CR20762 (SIYLLNLAISDLLFLF) | CCL22, CCL28,; also recorded: CXL10, CXL11,; also recorded: SDF1, CXL13,; also recorded: CXL14, IL8 |  |  |
| CK1982 (IFKTIVAKEICADPKQ) | CCL1, CCL22,; also recorded: CCL5, X3CL1,; also recorded: CXL10, CXL13 |  |  |
| CR22363 (SYRSTYIILLLTWFAG) | CCL18, X3CL1,; also recorded: CXL10 |  |  |
| CR5103 (FGLLGNILVVITFAFY) |  | CCL19, CCL20,; also recorded: CCL22, CCL28,; also recorded: CXL10, SDF1,; also recorded: CXL14 |  |

| Substance | Chemokines Bound [2] | Chemokines Bound [3] | also measured |
| --- | --- | --- | --- |
| CR3161 (DFSAILLYIDDFSAYF) |  | CCL17, CCL18,; also recorded: X3CL1, CXL10,; also recorded: SDF1, CXL13,; also recorded: CXL14 |  |
| CR7818 (GVWLMAIVGTFLNMLV) |  |  | Chemokines Bound [1]: CCL1, CCL18,; also recorded: CXL11, SDF1,; also recorded: CXL14 |
| CR24707 (VGALGNSLVILVYWYC) |  | CCL17, CCL18,; also recorded: CCL19, CCL20 |  |
| CR5175: chemokine binding peptide of Table 5A used in FIG. 5 combinations (FGVWLMSIVGTFLNML) |  | CCL17, CCL22, and IL8 |  |
| EB963 (ENDKKVGLCLSTEYTD) |  |  | Chemokines Bound [1]: CXL10, CXL11, and SDF1 |
| CR23111 (TLFASDFVLMWAVFFM) |  | CCL15, CCL17,; also recorded: CCL20, CCL25,; also recorded: CXL14 |  |
| CR12330 (LFVMLFSYGFTLRTLF) | CCL17, CCL18, and CCL20, CCL22, and CCL28, CXL14, and IL8 |  |  |
| CR25165 (VLGLLLNSLALWVFAA) |  | CCL19, CCL2,; also recorded: CCL20, CCL28 |  |
| CR10681 (KIIFSYVVVFLVAWLP) | CCL25, CCL28, and SDF1 |  |  |
| CR13391 (LLQALYSAVVPLIYSC) | CCL1, CCL18,; also recorded: CXL14 |  |  |
| CR15670 (MMTWFYAFFYSTVQRA) | CCL18, CCL2, and CCL20, CCL25, and CCL28, CCL8, and X3CL1, CXL13, and IL8 |  |  |
| CR13605 (LMFMIFAYTFIVKTLV) | CCL17, CCL18,; also recorded: CCL20, CCL22,; also recorded: CXL10 |  |  |
| CR12240 (LFMFVLSVLGNLTVVS) | CCL17, CCL18,; also recorded: CCL19, CCL25,; also recorded: CCL28, CXL10,; also recorded: CXL11, SDF1 |  |  |
| CR9948 (ISVAWHWVFGSFLSKM) |  |  | Chemokines Bound [1]: CCL17, CCL18, and CCL20, CCL22, and CCL25, X3CL1, and CXL11, CXL14, and IL8 |
| CR25357 (VLTLKVILGFFLPFVV) |  | CCL1, CCL17,; also recorded: CCL18, CCL19,; also recorded: CCL28, CXL10,; also recorded: CXL11, SDF1,; also recorded: CXL13, CXL14 |  |
| CR26231 (VVTSVITWLVAVFASV) |  | CCL11, CCL17, and CCL18, CCL2, and CCL20, CCL25, and CCL8, CXL10, and CXL11, CXL14, and IL8 |  |
| CR26655 (WMNILWAWFIFWWPHG) |  | CCL17, CCL18,; also recorded: CCL19, CCL20,; also recorded: CCL28, CXL10,; also recorded: SDF1, IL8 |  |
| VP4048 (IILLVYVYATFATKGI) |  |  | Chemokines Bound [1]: CCL1, CCL5,; also recorded: CCL8, X3CL1,; also recorded: CXL10, CXL11,; also recorded: CXL13, IL8 |
| CR8655 (IAVFGLLGNILVVITF) |  |  | Chemokines Bound [1]: CCL17, CCL22,; also recorded: CCL25, IL8 |
